Measurements as given in ChEMBL document CHEMBL3763138, “Synthesis and bioactivity of novel triazole incorporated benzothiazinone derivatives as antitubercular and antioxidant agent” (Bioorg Med Chem Lett, 2016).
Values after ≈ are worked out from the molar mass of the structure shown.

How the values were obtained:
[1] = Selectivity index, ratio of GI50 for human HeLa cells to MIC for Mycobacterium tuberculosis H37Ra ATCC 25177; type: toxicity, cell-based; settings: pooled result: one value given for 3 cell lines, strains, targets or settings, read-out: Selectivity Index
[2] = system: HeLa; experiment: Antiproliferative activity against human HeLa cells at 10 ug/ml after 72 hrs by MTT assay; type: cell-based
[3] = system: A-431; experiment: Antiproliferative activity against human A431 cells at 10 ug/ml after 48 hrs by MTT assay; type: cell-based; settings: a-431, 48 h
[4] = Cytotoxicity against human A431 cells assessed as growth inhibition after 48 hrs by MTT assay; type: cell-based, A-431
[5] = system: A549; experiment: Antiproliferative activity against human A549 cells at 3 ug/ml after 48 hrs by MTT assay; type: cell-based; settings: a549, 48 h
[6] = system: HeLa; experiment: Antiproliferative activity against human HeLa cells at 30 ug/ml after 72 hrs by MTT assay; type: cell-based
[7] = system: A-431; experiment: Antiproliferative activity against human A431 cells at 3 ug/ml after 48 hrs by MTT assay; type: cell-based; settings: a-431, 48 h
[8] = (§1) Cytotoxicity against human A549 cells assessed as growth inhibition after 48 hrs by MTT assay; type: cell-based; settings: A549 cells
[9] = system: A549; experiment: as §1; type: cell-based; settings: a549, 48 h
[10] = Selectivity index, ratio of GI50 for human HeLa cells to MIC for Mycobacterium bovis BCG ATCC 35743; type: toxicity, cell-based; settings: pooled result: one value given for 3 cell lines, strains, targets or settings, read-out: Selectivity Index
[11] = system: Mycobacterium tuberculosis; experiment: Antitubercular activity against Mycobacterium tuberculosis H37Ra ATCC 25177 at 10 ug/ml by XTT Reduction Menadione Assay; type: functional
[12] = system: Mycobacterium tuberculosis; experiment: Antitubercular activity against Mycobacterium tuberculosis H37Ra ATCC 25177 by XTT Reduction Menadione Assay; type: functional, organism-based
[13] = Antioxidant activity assessed as DPPH radical scavenging activity by spectrophotometric assay; type: physicochemical
[14] = system: A549; experiment: Antiproliferative activity against human A549 cells at 30 ug/ml after 48 hrs by MTT assay; type: cell-based; settings: a549, 48 h
[15] = system: HeLa; experiment: (§2) Cytotoxicity against human HeLa cells assessed as growth inhibition after 72 hrs by MTT assay; type: cell-based; settings: hela, 72 h
[16] = as §2; type: cell-based; settings: HeLa cells
[17] = system: Mycobacterium tuberculosis; experiment: Antitubercular activity against Mycobacterium tuberculosis H37Ra ATCC 25177 at 30 ug/ml by XTT Reduction Menadione Assay; type: functional
[18] = system: Mycobacterium tuberculosis; experiment: Antitubercular activity against Mycobacterium tuberculosis H37Ra ATCC 25177 at 3 ug/ml by XTT Reduction Menadione Assay; type: functional
[19] = system: HeLa; experiment: Antiproliferative activity against human HeLa cells at 3 ug/ml after 72 hrs by MTT assay; type: cell-based
[20] = system: A549; experiment: Antiproliferative activity against human A549 cells at 10 ug/ml after 48 hrs by MTT assay; type: cell-based; settings: a549, 48 h
[21] = system: A-431; experiment: Antiproliferative activity against human A431 cells at 30 ug/ml after 48 hrs by MTT assay; type: cell-based; settings: a-431, 48 h

SMILES | Activity [2] | Activity [3] | GI50 at 48 h [4] | Activity [5] | Activity [6] | Activity [7] | GI50 at 48 h [8] | MIC [9] | inhibition at 10 µg/mL [11] | IC50 [12] | MIC [12] | IC50 [13] | Activity [14] | GI50 [15] | GI50 at 72 h [16] | inhibition at 30 µg/mL [17] | inhibition at 3 µg/mL [18] | Activity [19] | Activity [20] | Activity [21] | also measured
O=C1CSc2ccccc2N1Cc1cn(Cc2cccc(Cl)c2)nn1 | 43.4% | -13.7% | > 30 µg/mL | 6.38% | 45.7% | -6.3% | > 30 µg/mL | > 30 µg/mL | 66.6% | 8.03 µg/mL (≈ 21.7 µM) | 27.3 µg/mL (≈ 73.7 µM) | 45.63 µg/mL (≈ 123 µM) | 19.04% | > 30 µg/mL | > 30 µg/mL | 94.2% | 8.6% | 52.3% | 3.31% | 4.4% | selectivity ratio [1]: 1.1; selectivity ratio [10]: 1.05
O=C1CSc2ccccc2N1Cc1cn(Cc2ccccc2Cl)nn1 | 38.6% | 29.6% | > 30 µg/mL | 4.19% | 55.9% | 15.4% | > 30 µg/mL | > 30 µg/mL | 74.9% | > 30 µg/mL | > 30 µg/mL | 16.35 µg/mL (≈ 44.1 µM) | 23.34% | > 30 µg/mL | > 30 µg/mL | 37.8% | 41.9% | 48.1% | -8.41% | 31.4% | 
O=C1CSc2ccccc2N1Cc1cn(Cc2cccc([N+](=O)[O-])c2)nn1 | -3% | 16.5% | > 30 µg/mL | -9.71% | 20.1% | 13.9% | > 30 µg/mL | > 30 µg/mL | 48.9% | 12.4 µg/mL (≈ 32.4 µM) | > 30 µg/mL | 34.12 µg/mL (≈ 89.5 µM) | -11.78% | > 30 µg/mL | > 30 µg/mL | 60.2% | 34.8% | 0% | 0% | 15.6% | 
O=C1CSc2ccccc2N1Cc1cn(Cc2ccc(F)cc2)nn1 | 46.3% | 31.1% | > 30 µg/mL | 12.32% | 51.3% | 17.3% | > 30 µg/mL | > 30 µg/mL | 77.5% | 1.24 µg/mL (≈ 3.5 µM) | 29.2 µg/mL (≈ 82.5 µM) | 14.15 µg/mL (≈ 39.9 µM) | 30.9% | > 30 µg/mL | 28.6 µg/mL (≈ 80.8 µM) | 91.3% | 73.8% | 45.1% | 4.1% | 44.5% | selectivity ratio [1]: 1.02; selectivity ratio [10]: 1.09
O=C1CSc2ccccc2N1Cc1cn(-c2cccc([N+](=O)[O-])c2)nn1 | 13.3% | 25.4% | > 30 µg/mL | 12.32% | 37.5% | 17.2% | > 30 µg/mL | > 30 µg/mL | 8.7% | > 30 µg/mL | > 30 µg/mL | 47.11 µg/mL (≈ 128 µM) | 22.02% | > 30 µg/mL | > 30 µg/mL | 1.2% | 25.7% | 11.9% | 0.19% | 29.7% | 
O=C1CSc2ccccc2N1Cc1cn(Cc2ccc(Br)cc2)nn1 | 32.9% | 4% | > 30 µg/mL | -5.96% | 41.3% | 8.6% | > 30 µg/mL | > 30 µg/mL | 38.4% | > 30 µg/mL | > 30 µg/mL | 14.14 µg/mL (≈ 34 µM) | 44.78% | > 30 µg/mL | > 30 µg/mL | 49.8% | 58% | 40.4% | -1.37% | 35.5% | 
Cc1cc(C(C)(C)C)c(O)c(C(C)(C)C)c1 [BUTYLATED HYDROXYTOLUENE] |  |  |  |  |  |  |  |  |  |  |  | 16.47 µg/mL (≈ 74.7 µM) |  |  |  |  |  |  |  |  | 
O=C1CSc2ccccc2N1Cc1cn(Cc2ccc(Cl)cc2)nn1 | 29.6% | 40.9% | 27.3 µg/mL (≈ 73.6 µM) | 3.6% | 45.1% | 35% | 29.9 µg/mL (≈ 80.7 µM) | > 30 µg/mL | 75.3% | 2.67 µg/mL (≈ 7.2 µM) | > 30 µg/mL | 44.29 µg/mL (≈ 119 µM) | 51.91% | > 30 µg/mL | > 30 µg/mL | 65.8% | 52.1% | 41.9% | 4.35% | 61.5% | 
O=C1CSc2ccccc2N1Cc1cn(-c2ccc([N+](=O)[O-])cc2)nn1 | -0.9% | 0% | > 30 µg/mL | 33.22% | 35.8% | 0% | > 30 µg/mL | > 30 µg/mL | 0.3% | > 30 µg/mL | > 30 µg/mL | 44.29 µg/mL (≈ 121 µM) | 38.71% | > 30 µg/mL | > 30 µg/mL | 28.5% | 24.2% | 13.3% | 24.73% | 0% | 
O=C1CSc2ccccc2N1Cc1cn(Cc2ccccc2)nn1 | 8.8% | -37.2% | > 30 µg/mL | -7.85% | 39.6% | 0% | > 30 µg/mL | > 30 µg/mL | 59.3% | 9.11 µg/mL (≈ 27.1 µM) | > 30 µg/mL | 36.26 µg/mL (≈ 108 µM) | 25.91% | > 30 µg/mL | > 30 µg/mL | 82.2% | -15.4% | 0% | -9.82% | -10.8% | 
CC(=O)O[C@H]1C(=O)[C@@]2(C)[C@H]([C@H](OC(=O)c3ccccc3)[C@]3(O)C[C@H](OC(=O)[C@H](O)[C@@H](NC(=O)c4ccccc4)c4ccccc4)C(C)=C1C3(C)C)[C@]1(OC(C)=O)CO[C@@H]1C[C@@H]2O [PACLITAXEL] |  |  | 0.0023 µg/mL (≈ 0.00269 µM) |  |  |  | < 0.0023 µg/mL | 0.039 µg/mL (≈ 0.0457 µM) |  |  |  |  |  |  | 0.14 µg/mL (≈ 0.164 µM) |  |  |  |  |  | 
O=C1CSc2ccccc2N1Cc1cn(Cc2ccc([N+](=O)[O-])cc2)nn1 | 53.2% | 12.9% | > 30 µg/mL | 0% | 55.5% | 10.8% | > 30 µg/mL | > 30 µg/mL | 52.9% | 9.2 µg/mL (≈ 24.1 µM) | > 30 µg/mL | 27.4 µg/mL (≈ 71.8 µM) | 8.43% | > 30 µg/mL | > 30 µg/mL | 70.6% | 9.8% | 36.5% | 17.56% | 44.7% | selectivity ratio [1]: 1; selectivity ratio [10]: 1.02
NNC(=O)c1ccncc1 [ISONIAZID] |  |  |  |  |  |  |  |  |  | 0.0025 µg/mL (≈ 0.0182 µM) | 0.075 µg/mL (≈ 0.547 µM) |  |  |  |  |  |  |  |  |  | selectivity ratio [1]: 1330; selectivity ratio [10]: 2220
CO[C@H]1/C=C/O[C@@]2(C)Oc3c(C)c(O)c4c(O)c(c(/C=N/N5CCN(C)CC5)c(O)c4c3C2=O)NC(=O)/C(C)=C\C=C\[C@H](C)[C@H](O)[C@@H](C)[C@@H](O)[C@@H](C)[C@H](OC(C)=O)[C@@H]1C [RIFAMPIN] |  |  |  |  |  |  |  |  |  |  | 0.043 µg/mL (≈ 0.0523 µM) |  |  |  |  |  |  |  |  |  | selectivity ratio [1]: 2330; selectivity ratio [10]: 2440
